Tests used:
[1] = target: T1, EcGNPDA (glucosamine-6-phosphate deaminase from Escherichia coli) (Escherichia coli, UniProt P0A759); experiment: near-UV circular dichroism of enzyme-doped gels, […] nm; format: binding; conditions: allosteric activator, 1 mM; ligand-free R-state gel; 100 mM Tris-HCl pH 7.7, 30°C
T1 construct: gene nagB; full-length homohexamer; plasmid pTZ18RnagB in E. coli IBPC590 Δnag (stated for the mutant); encapsulated in silica sol-gel in T quaternary conformation (mutant F also in solution)

[2] = target: T2, EcGNPDA (glucosamine-6-phosphate deaminase from Escherichia coli) (Escherichia coli, UniProt P0A759, C118S/D165C/S206W/C228S/C239S); experiment: initial velocity fitted to MWC equation; format: biochemical; conditions: mutant F, soluble enzyme; MWC R-state substrate dissociation constant (stronger state) from velocity data; cooperative; read-out: K R ^a
T2 construct: gene nagB; full-length homohexamer; plasmid pTZ18RnagB in E. coli IBPC590 Δnag (stated for the mutant); encapsulated in silica sol-gel in T quaternary conformation (mutant F also in solution)
From the text: initial velocity fitted to MWC equation on […] (glucosamine-6-phosphate deaminase from Escherichia coli)

| Compound | near-UV circular dichroism of enzyme-doped gels, 274 nm [1] | Kd [2] |
| --- | --- | --- |
| CC(=O)N[C@H]1C(O)O[C@H](COP(=O)(O)O)[C@@H](O)[C@@H]1O (some centres unmarked) [GlcNAc6P] | Only the enzyme in the R state when in presence of the activator, displays | – |
| N[C@H]1C(O)O[C@H](COP(=O)(O)O)[C@@H](O)[C@@H]1O (some centres unmarked) [GlcN6P] | – | 440 ± 10 µM |

— paper PMC4008608, “The Tertiary Origin of the Allosteric Activation of E. coli Glucosamine-6-Phosphate Deaminase Studied by Sol-Gel Nanoencapsulation of Its T Conformer” (PLoS ONE, 2014)
